In patent publication US20250228847A1, “COMBINATION THERAPY FOR TREATING CANCER” (AstraZeneca AB, priority 2022, published 2025):

Columns and labels:
[1] = system: LnCAP cells; experiment: Cell proliferation / viability assay (Sytox Green, AC50), 7 days treatment; format: cell-based; settings: Homo sapiens, LnCAP cell line (mHSPC, AR+ T877A), single agent
Experimental: (§1) The following cell lines were originally obtained from ATCC:
(§2) Cell line identification was validated using the CellCheck assay (IDEXX Bioanalytics, Westbrook, ME, USA). All cell lines were validated free of virus Mycoplasma contamination using the MycoSEQ assay (Thermo Fisher Scientific, Waltham, MA, USA) or STAT-Myco assay (IDEXX Bioanalytics). All cell lines were grown RPMI-1640 growth media (Corning 17-105-CV) supplemented with 10% fetal bovine serum (FBS) or, when indicated, 10% charcoal stripped FBS (ThermoFisher Scientific, 12676029) and 2 mM glutamine.
(§3) Cells in 384-well or 96-well plates were dosed using an Echo 555 (LabCyte, San Jose, CA, USA) or using the HP D300e Digital Dispenser (HP Life Science Dispensing), respectively. Live cell count pre- and post-treatment (7 days after treatment) was determined using CellTiter-Glo as per manufacturer's instructions (Promega, Madison, WI, USA; G7570).
(§4) Cell viability was determined with the Sytox Green assay as described in Davies 2012 and the AC50 calculated. The HSA (Highest Single Agent) Synergy Score was calculated according to Bernenbaum 1989.

[2] = system: C4-2 cells; experiment: as above; format: cell-based; settings: C4-2 cell line (mCRPC, AR+, ARV7), single agent
Experimental: as §1, §2, §3, §4

SMILES	AC50 [1] [µM]	AC50 [2] [nM]
CCc1cc2ncc(CN3CCN(c4ccc(C(=O)NC)nc4)CC3)cc2[nH]c1=O [AZD5305, 5-{4-[(7-ethyl-6-oxo-5,6-dihydro-1,5-naphthyridin-3-yl)methyl]piperazin-1-yl}-N-methylpyridine-2-carboxamide]	> 1	> 1000
C[C@]12CC[C@H](O)CC1=CC[C@@H]1[C@@H]2CC[C@]2(C)C(c3cccnc3)=CC[C@@H]12 [Abiraterone, abiraterone]	4.94	2810
